Measurements: patent US20040029965A1, “Formulations for reducing or eliminating toxicity of enviromental hormones containing ursodeoxycholic acid” (priority 2000, published 2004)

Tests used:
[1] = test system: C57B1/6J mice; assay: Feed uptake of mice after a single subcutaneous injection of TCDD; assay type: in vivo; design: unit not given here
Experimental: (§1) Male C57B1/6J mice of 5 weeks old having the average weight of 18-22 g which had been bred in CRJ (Charles River in Japan) were purchased and used in this example as experimental animals. Those mice were acclimated under the constant breeding condition, i.e. the temperature of 24±1° C., the humidity of 60±10% and the light and darkness cycle of 12 hours, for one week and thereafter, utilized in the experiment.
The Experimental animals were supplied with Purina powdered feed (purchased from Hae Eun Trade) and supplied with water ad libitum. All the animals were weighed twice a week during experimentation.
(§2) 2,3,7,8-tetrachlorodibenzo-p-dioxin (TCDD) dissolved in toluene (purity of 95% or more as a result of gas chromatography analysis), manufactured by Chem. Services Inc. in USA, was volatilized with nitrogen to obtain powder. The obtained powder was dissolved in a mixed solvent containing acetone and corn oil with a volume ratio of 1:6. The resulting solution each containing 110, 27.5 and 6.9 μg/kg of TCDD was subcutaneously injected to mice at a volume of 5 ml per body weight. […] The mice were supplied with the feed from 10 days before (pre-administration) to 60 days after administration of TCDD (post-administration).
(§3) The results are expressed as Mean±Standard Deviation values. For statistical analysis of the body weight, feed and water uptake, biochemical findings, hematological findings and the weight of organ in an acute toxicity test, verification was performed by one way analysis of variance (ANOVA) in case of equal distribution. In case significance was recognized in ANOVA, the Student's t-test was performed in the levels of p<0.05 and p<0.01.

[2] = test system: C57B1/6J mice; assay: Hematological changes in mice by a single subcutaneous injection of TCDD; assay type: in vivo; design: NEU / LYM / PLT: unit not given here
Experimental: as §1, §2
Upon completion of the experiment for 60 days, the experimental animals were fasted for 24 hours and anesthetized with ether. Then, they were abdominally incised and blood was gathered from abdominal vena cava. They were sacrificed by the release of blood. Liver, kidneys, testes and epididymides were extracted and all the extracted organs were weighed. Only the testes were separately kept and observed under optical and electron microscopes. For biochemical finding test, serum was separated from blood with a centrifuge and the separated serum was analyzed with an automated blood biochemical analyzer, Dimension (Dupont, USA). Blood was put to another blood gathering bottle and then, analyzed with an automated blood cell analyzer, Celldyn (Abbott, USA).
as §3
For hematological findings, white blood cell (WBC), neutrophil (NEU), lymphocyte (LYM), monocyte (MONO), eosinophil (EOS), basophil (BASO) and red blood cell (RBC) counts, and hemoglobin concentration (HGB), hematocrit (HCT), mean cell volume (MCV), mean corpuscular hemoglobin (MCH), mean corpuscular hemoglobin concentration (MCHC), red blood cell distribution width (RDW) and platelet count (PLT) were measured and the results are as follows.

[3] = TCDD 6.9 μg/kg + UDCA 0.125 wt %
[4] = TCDD 6.9 μg/kg + UDCA 0.25 wt %

Compound: C[C@H](CCC(=O)O)[C@H]1CC[C@H]2[C@@H]3[C@@H](O)C[C@@H]4C[C@H](O)CC[C@]4(C)[C@H]3CC[C@]12C [UDCA, 3α, 7β-dihydroxy-5β-cholanoic acid]
- feed uptake ([1]; TCDD 6.9 μg/kg + UDCA 0.125 wt %, 10 days): 4.64 ± 0.73
- feed uptake ([1]; TCDD 6.9 μg/kg + UDCA 0.125 wt %, 20 days): 4.55 ± 0.44
- feed uptake ([1]; TCDD 6.9 μg/kg + UDCA 0.125 wt %, 30 days): 3.83 ± 0.36
- feed uptake ([1]; TCDD 6.9 μg/kg + UDCA 0.125 wt %, 40 days): 3.83 ± 0.36
- feed uptake ([1]; TCDD 6.9 μg/kg + UDCA 0.125 wt %, 50 days): 3.19 ± 0.13
- feed uptake ([1]; TCDD 6.9 μg/kg + UDCA 0.125 wt %, 60 days): 2.59 ± 0.23
- feed uptake ([1]; TCDD 6.9 μg/kg + UDCA 0.25 wt %, 10 days): 4.39 ± 0.79
- feed uptake ([1]; TCDD 6.9 μg/kg + UDCA 0.25 wt %, 20 days): 4.86 ± 0.90
- feed uptake ([1]; TCDD 6.9 μg/kg + UDCA 0.25 wt %, 30 days): 3.78 ± 0.57
- feed uptake ([1]; TCDD 6.9 μg/kg + UDCA 0.25 wt %, 40 days): 3.78 ± 0.57
- feed uptake ([1]; TCDD 6.9 μg/kg + UDCA 0.25 wt %, 50 days): 3.18 ± 0.56
- feed uptake ([1]; TCDD 6.9 μg/kg + UDCA 0.25 wt %, 60 days): 2.90 ± 0.30
- feed uptake ([1]; TCDD 6.9 μg/kg + UDCA 0.5 wt %, 10 days): 4.48 ± 0.67
- feed uptake ([1]; TCDD 6.9 μg/kg + UDCA 0.5 wt %, 20 days): 4.00 ± 1.11
- feed uptake ([1]; TCDD 6.9 μg/kg + UDCA 0.5 wt %, 30 days): 4.66 ± 0.67
- feed uptake ([1]; TCDD 6.9 μg/kg + UDCA 0.5 wt %, 40 days): 4.66 ± 0.67
- feed uptake ([1]; TCDD 6.9 μg/kg + UDCA 0.5 wt %, 50 days): 3.12 ± 0.40
- feed uptake ([1]; TCDD 6.9 μg/kg + UDCA 0.5 wt %, 60 days): 3.35 ± 1.56
- feed uptake ([1]; TCDD 27.5 μg/kg + UDCA 0.125 wt %, 10 days): 4.15 ± 0.64
- feed uptake ([1]; TCDD 27.5 μg/kg + UDCA 0.125 wt %, 20 days): 3.85 ± 0.43
- feed uptake ([1]; TCDD 27.5 μg/kg + UDCA 0.125 wt %, 30 days): 3.99 ± 0.34
- feed uptake ([1]; TCDD 27.5 μg/kg + UDCA 0.125 wt %, 40 days): 3.72 ± 0.21
- feed uptake ([1]; TCDD 27.5 μg/kg + UDCA 0.125 wt %, 50 days): 2.90 ± 0.98
- feed uptake ([1]; TCDD 27.5 μg/kg + UDCA 0.125 wt %, 60 days): 2.96 ± 0.29
- feed uptake ([1]; TCDD 27.5 μg/kg + UDCA 0.25 wt %, 10 days): 4.07 ± 0.40
- feed uptake ([1]; TCDD 27.5 μg/kg + UDCA 0.25 wt %, 20 days): 3.41 ± 0.71
- feed uptake ([1]; TCDD 27.5 μg/kg + UDCA 0.25 wt %, 30 days): 3.59 ± 0.38
- feed uptake ([1]; TCDD 27.5 μg/kg + UDCA 0.25 wt %, 40 days): 3.32 ± 0.39
- feed uptake ([1]; TCDD 27.5 μg/kg + UDCA 0.25 wt %, 50 days): 3.16 ± 0.24
- feed uptake ([1]; TCDD 27.5 μg/kg + UDCA 0.25 wt %, 60 days): 3.10 ± 0.77
- feed uptake ([1]; TCDD 27.5 μg/kg + UDCA 0.5 wt %, 10 days): 4.31 ± 1.49
- feed uptake ([1]; TCDD 27.5 μg/kg + UDCA 0.5 wt %, 20 days): 4.67 ± 1.13
- feed uptake ([1]; TCDD 27.5 μg/kg + UDCA 0.5 wt %, 30 days): 3.99 ± 0.36
- feed uptake ([1]; TCDD 27.5 μg/kg + UDCA 0.5 wt %, 40 days): 3.49 ± 0.57
- feed uptake ([1]; TCDD 27.5 μg/kg + UDCA 0.5 wt %, 50 days): 3.18 ± 0.55
- feed uptake ([1]; TCDD 27.5 μg/kg + UDCA 0.5 wt %, 60 days): 3.17 ± 0.49
- feed uptake ([1]; TCDD 110.0 μg/kg + UDCA 0.125 wt %, 10 days): 3.77 ± 0.43
- feed uptake ([1]; TCDD 110.0 μg/kg + UDCA 0.125 wt %, 20 days): 3.64 ± 1.16
- feed uptake ([1]; TCDD 110.0 μg/kg + UDCA 0.125 wt %, 30 days): 2.94 ± 0.64
- feed uptake ([1]; TCDD 110.0 μg/kg + UDCA 0.125 wt %, 40 days): 1.99 ± 0.58
- feed uptake ([1]; TCDD 110.0 μg/kg + UDCA 0.25 wt %, 10 days): 3.65 ± 0.33
- feed uptake ([1]; TCDD 110.0 μg/kg + UDCA 0.25 wt %, 20 days): 3.09 ± 0.44
- feed uptake ([1]; TCDD 110.0 μg/kg + UDCA 0.25 wt %, 30 days): 3.23 ± 0.55
- feed uptake ([1]; TCDD 110.0 μg/kg + UDCA 0.25 wt %, 40 days): 3.06 ± 1.89
- feed uptake ([1]; TCDD 110.0 μg/kg + UDCA 0.5 wt %, 10 days): 3.87 ± 0.57
- feed uptake ([1]; TCDD 110.0 μg/kg + UDCA 0.5 wt %, 20 days): 3.77 ± 0.62
- feed uptake ([1]; TCDD 110.0 μg/kg + UDCA 0.5 wt %, 30 days): 3.39 ± 0.24
- feed uptake ([1]; TCDD 110.0 μg/kg + UDCA 0.5 wt %, 40 days): 2.72 ± 0.72
- feed uptake ([1]; TCDD 110.0 μg/kg + UDCA 0.5 wt %, 50 days): 2.19 ± 0.22
- feed uptake ([1]; TCDD 110.0 μg/kg + UDCA 0.5 wt %, 60 days): 2.05 ± 0.62
- BASO [2, 3]: 0.12 ± 0.07 10^3
- EOS [2, 3]: 0.004 ± 0.005 10^3
- HCT [2, 3]: 44.61 ± 1.14%
- HGB [2, 3]: 14.35 ± 0.37 g/dL
- LYM [2, 3]: 5.06 ± 1.70 10^3
- MCH [2, 3]: 14.87 ± 0.22 pg
- MCHC [2, 3]: 32.18 ± 0.43 g/dL
- MCV [2, 3]: 46.18 ± 0.55 fL
- MONO [2, 3]: 0.05 ± 0.06 10^3
- NEU [2, 3]: 0.32 ± 0.13 10^3
- PLT [2, 3]: 1117.7 ± 88.65 10^3
- RBC [2, 3]: 9.66 ± 0.24 10^6
- RDW [2, 3]: 20.17 ± 1.07%
- WBC [2, 3]: 5.55 ± 1.91 10^3
- BASO [2, 4]: 0.09 ± 0.04 10^3
- EOS [2, 4]: 0.003 ± 0.002 10^3
- HCT [2, 4]: 44.77 ± 1.57%
